Data as given in the NIST ThermoML archive (doi:10.1021/acs.jced.6b00350).
Where “and” joins values, the source holds several entries; their conditions need not be identical. Equal values may be shown once. ± gives the expanded uncertainty stated by the source.

Details: Liquid, Hot wire method

FC(F)CC(F)(F)F [1,1,1,3,3-pentafluoropropane]
Details	thermal conductivity
173.21 K, 150 kPa	0.1235 ± 0.0016 W/m/K and 0.1232 ± 0.0016 W/m/K
173.3 K, 132 kPa	0.1239 ± 0.0016 W/m/K
173.3 K, 133 kPa	0.1234 ± 0.0016 W/m/K
173.3 K, 148 kPa	0.1237 ± 0.0016 W/m/K and 0.1231 ± 0.0016 W/m/K
173.41 K, 150 kPa	0.1234 ± 0.0016 W/m/K
173.51 K, 135 kPa	0.1234 ± 0.0016 W/m/K and 0.1231 ± 0.0016 W/m/K
173.51 K, 148 kPa	0.1235 ± 0.0016 W/m/K and 0.1238 ± 0.0016 W/m/K
173.66 K, 150 kPa	0.1231 ± 0.0016 W/m/K
173.75 K, 136 kPa	0.1237 ± 0.0016 W/m/K
173.75 K, 137 kPa	0.1236 ± 0.0016 W/m/K
173.75 K, 148 kPa	0.1236 ± 0.0016 W/m/K
173.91 K, 150 kPa	0.1233 ± 0.0016 W/m/K and 0.1231 ± 0.0016 W/m/K
174.01 K, 138 kPa	0.1235 ± 0.0016 W/m/K
174.01 K, 140 kPa	0.1235 ± 0.0016 W/m/K
174.01 K, 148 kPa	0.1235 ± 0.0016 W/m/K
174.01 K, 149 kPa	0.1235 ± 0.0016 W/m/K
174.21 K, 150 kPa	0.1234 ± 0.0016 W/m/K
174.29 K, 140 kPa	0.1233 ± 0.0016 W/m/K
174.29 K, 141 kPa	0.1231 ± 0.0016 W/m/K
174.3 K, 149 kPa	0.1239 ± 0.0016 W/m/K and 0.1236 ± 0.0016 W/m/K
181.78 K, 159 kPa	0.1224 ± 0.0015 W/m/K and 0.1223 ± 0.0015 W/m/K
182.06 K, 158 kPa	0.1227 ± 0.0016 W/m/K and 0.1222 ± 0.0015 W/m/K
182.37 K, 158 kPa	0.1222 ± 0.0015 W/m/K and 0.1225 ± 0.0015 W/m/K
182.5 K, 266 kPa	0.1225 ± 0.0015 W/m/K
182.5 K, 269 kPa	0.1226 ± 0.0015 W/m/K
182.51 K, 5857 kPa	0.1236 ± 0.0016 W/m/K
182.51 K, 70521 kPa	0.1336 ± 0.0017 W/m/K
182.52 K, 5874 kPa	0.1237 ± 0.0016 W/m/K
182.52 K, 12298 kPa	0.1248 ± 0.0016 W/m/K
182.52 K, 12334 kPa	0.1252 ± 0.0016 W/m/K
182.53 K, 18829 kPa	0.126 ± 0.0016 W/m/K
182.53 K, 18849 kPa	0.126 ± 0.0016 W/m/K
182.53 K, 32455 kPa	0.1283 ± 0.0016 W/m/K
182.54 K, 25387 kPa	0.1271 ± 0.0016 W/m/K
182.54 K, 25434 kPa	0.1275 ± 0.0016 W/m/K
182.54 K, 63262 kPa	0.1331 ± 0.0017 W/m/K and 0.133 ± 0.0017 W/m/K
182.55 K, 32519 kPa	0.128 ± 0.0016 W/m/K
182.6 K, 54974 kPa	0.1317 ± 0.0017 W/m/K
182.6 K, 54979 kPa	0.1314 ± 0.0017 W/m/K
182.64 K, 47632 kPa	0.1303 ± 0.0016 W/m/K
182.64 K, 47638 kPa	0.1309 ± 0.0017 W/m/K
182.68 K, 39974 kPa	0.1293 ± 0.0016 W/m/K
182.68 K, 39979 kPa	0.1294 ± 0.0016 W/m/K
182.7 K, 158 kPa	0.1222 ± 0.0015 W/m/K
182.71 K, 158 kPa	0.1222 ± 0.0015 W/m/K
182.81 K, 266 kPa	0.1225 ± 0.0015 W/m/K
182.81 K, 278 kPa	0.1224 ± 0.0015 W/m/K
182.81 K, 5870 kPa	0.1236 ± 0.0016 W/m/K
182.81 K, 5874 kPa	0.1234 ± 0.0016 W/m/K
182.81 K, 70507 kPa	0.134 ± 0.0017 W/m/K
182.81 K, 70514 kPa	0.134 ± 0.0017 W/m/K
182.82 K, 12333 kPa	0.1247 ± 0.0016 W/m/K
182.83 K, 18827 kPa	0.1259 ± 0.0016 W/m/K
182.83 K, 18835 kPa	0.1259 ± 0.0016 W/m/K
182.83 K, 25436 kPa	0.1272 ± 0.0016 W/m/K
182.84 K, 25420 kPa	0.127 ± 0.0016 W/m/K
182.84 K, 32528 kPa	0.1281 ± 0.0016 W/m/K
182.84 K, 32589 kPa	0.128 ± 0.0016 W/m/K
182.85 K, 63255 kPa	0.1331 ± 0.0017 W/m/K
182.91 K, 54970 kPa	0.1314 ± 0.0017 W/m/K
182.92 K, 54983 kPa	0.1316 ± 0.0017 W/m/K
182.95 K, 47626 kPa	0.1304 ± 0.0016 W/m/K
182.95 K, 47631 kPa	0.1305 ± 0.0016 W/m/K
182.99 K, 39966 kPa	0.129 ± 0.0016 W/m/K
182.99 K, 39976 kPa	0.1291 ± 0.0016 W/m/K
183.06 K, 158 kPa	0.1223 ± 0.0015 W/m/K and 0.1222 ± 0.0015 W/m/K
183.13 K, 269 kPa	0.1224 ± 0.0015 W/m/K
183.14 K, 277 kPa	0.1224 ± 0.0015 W/m/K
183.14 K, 5876 kPa	0.1234 ± 0.0016 W/m/K
